Laboratory results taken from publication PMC6558518 (Angewandte Chemie (International ed. in English), 2018).

Columns and labels:
HeLa cells [1] = experiment: MTT assay of cell viability / anti-proliferative activity; type: cell-based
HeLa cells [2] = experiment: Mitochondrial membrane potential with JC-10 dye; conditions: 20 μM

COC1=C2C[C@@H](C)C[C@H](OC)[C@H](O)[C@@H](C)/C=C(\C)[C@H](OC(N)=O)[C@@H](OC)/C=C\C=C(/C)C(=O)NC(=CC1=O)C2=O [GA, Geldanamycin] was tested, and the “inhibitor concentration at which maximum inhibition was reached” value (HeLa cells [1]; HeLa cells) was 0.3 µM and the “maximum inhibition in HeLa cell viability” value (HeLa cells [1]; at saturating concentrations) was ~ 40%.
With “p-trifluoromethoxy carbonyl cyanide phenyl hydrazone [FCCP]” the “increase of F520/F590 ratio above the normal value” (HeLa cells [2]) was “up to 7 fold”.
